US7902373B2 (Pfizer Inc, priority 2006, dated 2011)

Molecular target: human recombinant H-PGDS (Homo sapiens, UniProt O60760)
Test: Fluorescence intensity h-PGDS TBA enzyme assay
Type: biochemical
Conditions: Examples up to 622 (and 3a, 3b)

Chain of human recombinant H-PGDS (O60760 whole entry): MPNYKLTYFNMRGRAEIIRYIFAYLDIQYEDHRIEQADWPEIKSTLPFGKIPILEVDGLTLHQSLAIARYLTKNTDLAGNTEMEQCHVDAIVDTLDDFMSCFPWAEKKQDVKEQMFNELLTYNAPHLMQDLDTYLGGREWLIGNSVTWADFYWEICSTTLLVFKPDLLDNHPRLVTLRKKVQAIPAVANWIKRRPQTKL

Going from CCCn1cc(CN2CCC(NC(=O)c3ccc(-c4cccc(F)c4)nc3)CC2)cn1 [Example 516, 6-(3-Fluorophenyl)-N-{1-[(1-propyl-1H-pyrazol-4-yl)methyl]piperidin-4-yl}nicotinamide] to CCCn1nccc1CN1CCC(NC(=O)c2ccc(-c3cccc(F)c3)nc2)CC1 [Example 517, 6-(3-Fluorophenyl)-N-{1-[(1-propyl-1H-pyrazol-5-yl)methyl]piperidin-4-yl}nicotinamide], the IC50 falls from 2.2 nM to 0.41 nM (5.4-fold). The second is the more potent here.

Going from O=C(NC1CCN(Cc2coc3ccccc23)CC1)c1ccc(-c2cccc(F)c2)nc1 [Example 518, N-[1-(1-Benzofuran-3-ylmethyl)piperidin-4-yl]-6-(3-fluorophenyl)nicotinamide] to O=C(NC1CCN(Cc2ccc3occc3c2)CC1)c1ccc(-c2cccc(F)c2)nc1 [Example 520, N-[1-(1-Benzofuran-5-ylmethyl)piperidin-4-yl]-6-(3-fluorophenyl)nicotinamide], the IC50 rises from 0.96 nM to 1.93 nM (2-fold). The first is the more potent here.

Going from Cn1ncc(Cl)c1CN1CCC(NC(=O)c2ccc(-c3cccc(F)c3)nc2)CC1 [Example 519, N-{1-[(4-Chloro-1-methyl-1H-pyrazol-5-yl)methyl]piperidin-4-yl}-6-(3-fluorophenyl)nicotinamide] to CCC(C)N1CCC(NC(=O)c2ccc(-c3cccc(F)c3)nc2)CC1 (centres unmarked) [Example 545, N-(1-sec-Butylpiperidin-4-yl)-6-(3-fluorophenyl)nicotinamide], the IC50 rises from 0.445 nM to 2.65 nM (6-fold). The first is the more potent here.

Going from O=C(NC1CCN(C(=O)OCc2ccccc2)CC1)c1ccc(-c2cccc(F)c2)nc1 [Example 521, Benzyl 4-({[6-(3-fluorophenyl)pyridin-3-yl]carbonyl}amino)piperidine-1-carboxylate] to CC(c1ccccc1)N1CCC(NC(=O)c2ccc(-c3cccc(F)c3)nc2)CC1 (centres unmarked) [Example 531, 6-(3-Fluorophenyl)-N-[1-(1-phenylethyl)piperidin-4-yl]nicotinamide], the IC50 falls from 556 nM to 1.15 nM (480-fold). The second is the more potent here.

Compared with CC(C)(C)OC(=O)N1[C@@H]2CC[C@H]1CC(NC(=O)c1ccc(-c3cccc(F)c3)nc1)C2 (stereo partly drawn) [Example 522, tert-Butyl (1R,5S)-3-({[6-(3-fluorophenyl)pyridin-3-yl]carbonyl}amino)-8-azabicyclo[3.2.1]octane-8-carboxylate], CC(=O)NC1CCC(N2CCC(NC(=O)c3ccc(-c4cccc(F)c4)nc3)CC2)CC1 (centres unmarked) [Example 546, N-{1-[4-(Acetylamino)cyclohexyl]piperidin-4-yl}-6-(3-fluorophenyl)nicotinamide] is 2.3-fold lower in IC50: 6.54 nM for the first, 2.83 nM for the second. The second is the more potent here.

Going from CC(C)(C)OC(=O)N1CCC(NC(=O)c2ccc(-c3cccc(F)c3)nc2)C(c2ccc(F)cc2)C1 (centres unmarked) [Example 523, tert-Butyl 3-(4-fluorophenyl)-4-({[6-(3-fluorophenyl)pyridin-3-yl]carbonyl}amino)piperidine-1-carboxylate] to CC(=O)N1CCC(NC(=O)c2ccc(-c3cccc(F)c3)nc2)C(c2ccc(F)cc2)C1 (centres unmarked) [Example 526], the IC50 falls from 217 nM to 76.3 nM (2.8-fold).

O=CN1CCC(NC(=O)c2ccc(-c3cccc(F)c3)nc2)CC1 [Example 524, 6-(3-Fluorophenyl)-N-(1-formylpiperidin-4-yl)nicotinamide] and O=C(NC1CCN(C2CNC2)CC1)c1ccc(-c2cccc(F)c2)nc1 [Example 552, N-(1-Azetidin-3-ylpiperidin-4-yl)-6-(3-fluorophenyl)nicotinamide] are within 1.5-fold of each other in IC50: 1.76 nM for the first, 2.37 nM for the second.

Going from O=C(NC1CCNCC1c1ccc(F)cc1)c1ccc(-c2cccc(F)c2)nc1 (centres unmarked) [Example 525, 6-(3-Fluorophenyl)-N-[3-(4-fluorophenyl)piperidin-4-yl]nicotinamide] to COc1ccc(C(C)N2CCC(NC(=O)c3ccc(-c4cccc(F)c4)nc3)CC2)cc1 (centres unmarked) [Example 535, 6-(3-Fluorophenyl)-N-{1-[1-(4-methoxyphenyl)ethyl]piperidin-4-yl}nicotinamide], the IC50 falls from 14.8 nM to 2.11 nM (7-fold).

CC(CC1CC1)N1CCC(NC(=O)c2ccc(-c3cccc(F)c3)nc2)CC1 (centres unmarked) [Example 527, N-[1-(2-Cyclopropyl-1-methylethyl)piperidin-4-yl]-6-(3-fluorophenyl)nicotinamide] and CC(CCO)N1CCC(NC(=O)c2ccc(-c3cccc(F)c3)nc2)CC1 (centres unmarked) [Example 550, 6-(3-Fluorophenyl)-N-[1-(3-hydroxy-1-methylpropyl)piperidin-4-yl]nicotinamide] are within 1.5-fold of each other in IC50: 2.84 nM for the first, 2.38 nM for the second.

Going from COc1ccc2c(c1)CCC2N1CCC(NC(=O)c2ccc(-c3cccc(F)c3)nc2)CC1 (centres unmarked) [Example 528, 6-(3-Fluorophenyl)-N-[1-(5-methoxy-2,3-dihydro-1H-inden-1-yl)piperidin-4-yl]nicotinamide] to COc1cccc(C(C)N2CCC(NC(=O)c3ccc(-c4cccc(F)c4)nc3)CC2)c1 (centres unmarked) [Example 532, 6-(3-Fluorophenyl)-N-{1-[1-(3-methoxyphenyl)ethyl]piperidin-4-yl}nicotinamide], the IC50 falls from 2.49 nM to 1.3 nM (1.9-fold).

CC(CC1(C)CC1)N1CCC(NC(=O)c2ccc(-c3cccc(F)c3)nc2)CC1 (centres unmarked) [Example 529, 6-(3-Fluorophenyl)-N-{1-[1-methyl-2-(1-methylcyclopropyl)ethyl]piperidin-4-yl}nicotinamide] and CC(CCn1cccn1)N1CCC(NC(=O)c2ccc(-c3cccc(F)c3)nc2)CC1 (centres unmarked) [Example 548, 6-(3-Fluorophenyl)-N-{1-[1-methyl-3-(1H-pyrazol-1-yl)propyl]piperidin-4-yl}nicotinamide] are within 1.5-fold of each other in IC50: 2.5 nM for the first, 2.07 nM for the second.

Going from COc1ccccc1C(C)N1CCC(NC(=O)c2ccc(-c3cccc(F)c3)nc2)CC1 (centres unmarked) [Example 530, 6-(3-Fluorophenyl)-N-{1-[1-(2-methoxyphenyl)ethyl]piperidin-4-yl}nicotinamide] to COc1ccccc1OCC(C)N1CCC(NC(=O)c2ccc(-c3cccc(F)c3)nc2)CC1 (centres unmarked) [Example 553, 6-(3-Fluorophenyl)-N-{1-[2-(2-methoxyphenoxy)-1-methylethyl]piperidin-4-yl}nicotinamide], the IC50 falls from 2.71 nM to 1.78 nM (1.5-fold). The second is the more potent here.

COc1cccc(OC)c1C(C)N1CCC(NC(=O)c2ccc(-c3cccc(F)c3)nc2)CC1 (centres unmarked) [Example 533, N-{1-[1-(2,6-Dimethoxyphenyl)ethyl]piperidin-4-yl}-6-(3-fluorophenyl)nicotinamide] and COc1ccc(C(C)N2CCC(NC(=O)c3ccc(-c4cccc(F)c4)nc3)CC2)cc1OC (centres unmarked) [Example 536, N-{1-[1-(3,4-Dimethoxyphenyl)ethyl]piperidin-4-yl}-6-(3-fluorophenyl)nicotinamide] are within 1.5-fold of each other in IC50: 2.42 nM for the first, 1.75 nM for the second.

Compared with COc1ccc(CC(C)N2CCC(NC(=O)c3ccc(-c4cccc(F)c4)nc3)CC2)cc1 (centres unmarked) [Example 534, 6-(3-Fluorophenyl)-N-{1-[2-(4-methoxyphenyl)-1-methylethyl]piperidin-4-yl}nicotinamide], COc1ccc(C(C)N2CCC(NC(=O)c3ccc(-c4cccc(F)c4)nc3)CC2)c(OC)c1 (centres unmarked) [Example 543, N-{1-[1-(2,4-Dimethoxyphenyl)ethyl]piperidin-4-yl}-6-(3-fluorophenyl)nicotinamide] is 14-fold higher in IC50: 0.234 nM for the first, 3.27 nM for the second.

First: O=C(NC1CCN(C2CCC(=O)N(CC3CC3)CC2)CC1)c1ccc(-c2cccc(F)c2)nc1 (centres unmarked) [Example 537, N-{1-[1-(Cyclopropylmethyl)-7-oxoazepan-4-yl]piperidin-4-yl}-6-(3-fluorophenyl)nicotinamide]
Second: O=C(NC1CCN(C2CCC(=O)N(CC3CCC3)CC2)CC1)c1ccc(-c2cccc(F)c2)nc1 (centres unmarked) [Example 542, N-{1-[1-(Cyclobutylmethyl)-7-oxoazepan-4-yl]piperidin-4-yl}-6-(3-fluorophenyl)nicotinamide]
The IC50 of the first is 1.6-fold higher: 2.68 nM for the first, 1.68 nM for the second. The second is the more potent here.

CC(C)CN1CCC(N2CCC(NC(=O)c3ccc(-c4cccc(F)c4)nc3)CC2)CCC1=O (centres unmarked) [Example 538, 6-(3-Fluorophenyl)-N-[1-(1-isobutyl-7-oxoazepan-4-yl)piperidin-4-yl]nicotinamide] and COCCN1CCC(N2CCC(NC(=O)c3ccc(-c4cccc(F)c4)nc3)CC2)CCC1=O (centres unmarked) [Example 539, 6-(3-Fluorophenyl)-N-{1-[1-(2-methoxyethyl)-7-oxoazepan-4-yl]piperidin-4-yl}nicotinamide] are within 1.5-fold of each other in IC50: 1.94 nM for the first, 2.71 nM for the second.

First: CC(c1cnn(-c2ccccc2)c1)N1CCC(NC(=O)c2ccc(-c3cccc(F)c3)nc2)CC1 (centres unmarked) [Example 540, 6-(3-Fluorophenyl)-N-{1-[1-(1-phenyl-1H-pyrazol-4-yl)ethyl]piperidin-4-yl}nicotinamide]
Second: COc1cc(OC)cc(C(C)N2CCC(NC(=O)c3ccc(-c4cccc(F)c4)nc3)CC2)c1 (centres unmarked) [Example 544, N-{1-[1-(3,5-Dimethoxyphenyl)ethyl]piperidin-4-yl}-6-(3-fluorophenyl)nicotinamide]
The IC50 of the first is 1.6-fold higher: 1.99 nM for the first, 1.27 nM for the second.

Compared with CCC(c1ccc(OC)c(OC)c1)N1CCC(NC(=O)c2ccc(-c3cccc(F)c3)nc2)CC1 (centres unmarked) [Example 541, N-{1-[1-(3,4-Dimethoxyphenyl)propyl]piperidin-4-yl}-6-(3-fluorophenyl)nicotinamide], COC1CCCC(N2CCC(NC(=O)c3ccc(-c4cccc(F)c4)nc3)CC2)C1 (centres unmarked) [Example 549, 6-(3-Fluorophenyl)-N-[1-(3-methoxycyclohexyl)piperidin-4-yl]nicotinamide] is 2.4-fold higher in IC50: 0.951 nM for the first, 2.26 nM for the second.

O=C(NC1CCN(C2CCOCC2)CC1)c1ccc(-c2cccc(F)c2)nc1 [Example 547, 6-(3-Fluorophenyl)-N-[1-(tetrahydro-2H-pyran-4-yl)piperidin-4-yl]nicotinamide] and O=C(NC1CCN(C2CCCC2)CC1)c1ccc(-c2cccc(F)c2)nc1 [Example 551, N-(1-Cyclopentylpiperidin-4-yl)-6-(3-fluorophenyl)nicotinamide] are within 1.5-fold of each other in IC50: 1.14 nM for the first, 1.32 nM for the second.

Going from O=C(NC1CCN(C2CCC(O)(c3cncnc3)CC2)CC1)c1ccc(-c2cccc(F)c2)nc1 (centres unmarked) [Example 554, 6-(3-Fluorophenyl)-N-[1-(4-hydroxy-4-pyrimidin-5-ylcyclohexyl)piperidin-4-yl]nicotinamide] to O=C(NC1CCN(C2CCC(O)(c3nccs3)CC2)CC1)c1ccc(-c2cccc(F)c2)nc1 (centres unmarked) [Example 555, 6-(3-Fluorophenyl)-N-{1-[4-hydroxy-4-(1,3-thiazol-2-yl)cyclohexyl]piperidin-4-yl}nicotinamide], the IC50 falls from 1.72 nM to 0.928 nM (1.9-fold).

O=C(NC1CCN(C2CCC(Oc3ccccc3)CC2)CC1)c1ccc(-c2cccc(F)c2)nc1 (centres unmarked) [Example 556, 6-(3-Fluorophenyl)-N-[1-(4-phenoxycyclohexyl)piperidin-4-yl]nicotinamide] gave an IC50 of 0.364 nM.
